Measured values as given in BindingDB's records for doi:10.7270/Q27W69N8 (Srmlsc, 2009).

target: T1, M17 leucyl aminopeptidase (Plasmodium falciparum (isolate 3D7), UniProt Q8IL11); test: P. falciparum M17LAP inhibitors, primary screen, biochemical, fluorogenic H-Leu-NHMec substrate, 1536-well (AID 1619)
T1 sequence (Q8IL11 whole entry): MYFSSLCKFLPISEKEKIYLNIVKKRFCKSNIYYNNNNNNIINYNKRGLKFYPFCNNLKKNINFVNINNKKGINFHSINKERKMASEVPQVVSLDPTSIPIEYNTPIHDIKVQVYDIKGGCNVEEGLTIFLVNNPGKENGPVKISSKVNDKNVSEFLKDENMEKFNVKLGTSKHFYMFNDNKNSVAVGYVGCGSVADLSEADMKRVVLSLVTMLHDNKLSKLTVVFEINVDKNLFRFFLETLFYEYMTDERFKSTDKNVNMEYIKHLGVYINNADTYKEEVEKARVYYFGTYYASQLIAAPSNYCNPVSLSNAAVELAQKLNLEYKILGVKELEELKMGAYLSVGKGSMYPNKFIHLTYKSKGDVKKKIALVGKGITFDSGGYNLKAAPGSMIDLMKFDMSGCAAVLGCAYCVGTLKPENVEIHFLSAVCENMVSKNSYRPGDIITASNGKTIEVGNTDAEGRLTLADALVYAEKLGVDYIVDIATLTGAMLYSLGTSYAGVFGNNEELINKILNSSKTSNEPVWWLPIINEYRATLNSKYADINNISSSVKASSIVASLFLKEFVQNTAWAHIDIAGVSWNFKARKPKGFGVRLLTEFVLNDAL

SMILES	IC50 [µM]
N#CC1C(=N)Oc2[nH]nc(-c3ccccc3)c2C1c1cccnc1 (stereo unspecified) [MLS000030179]	60.4
N#CC1C(=N)Oc2[nH]nc(-c3ccc(F)cc3)c2C1c1cccnc1 (stereo unspecified) [MLS000043841]	61.2
Cc1nc2c([nH]1)C1(CCN(Cc3ccccc3)CC1)C(C#N)C(=N)O2 (stereo unspecified) [MLS000047918]	63.2
O=NCc1c[nH]c2ccccc12 [MLS000104363]	13.2
CC(C)CC1c2c(-c3ccccc3)n[nH]c2OC(=N)C1C#N (stereo unspecified) [MLS000121961]	33.7
O=C1c2ccccc2C(=O)C1C1=NC(C(=O)O)c2c1c(O)n(-c1ccc(Cl)cc1)c2O (stereo unspecified) [MLS000331181]	71.6
CN(C)c1ccc(/N=N/c2ccccc2C(=O)OCC(=O)N2CCCC2)cc1 [MLS000374806]	9.23
C/C(=C\c1ccco1)C1c2c(-c3ccc(C)cc3)n[nH]c2OC(=N)C1C#N (stereo unspecified) [MLS000519110]	132
COc1cccc(-c2n[nH]c3c2C(c2ccoc2)C(C#N)C(=N)O3)c1 (stereo unspecified) [MLS000558215]	76.8
CCOC(=O)C1C(=O)C(=Cc2ccc(OCC(=O)O)c(OCC)c2)SC1=Nc1ccc(OC)cc1 (stereo unspecified) [MLS000704394]	21.3
CC(=NNC(=O)Cc1c(C)[nH][nH]c1=O)c1ccco1 [MLS000723689]	12.3
CCOc1ccc(-n2c(O)cc(Sc3nnc(-c4ccccc4)[nH]3)c2O)cc1 [MLS000765380]	11.1
Cc1[nH][nH]c(=O)c1CCC(=O)NN=CC(Br)=Cc1ccccc1 [N'-(2-bromo-3-phenyl-2-propen-1-ylidene)-3-(3-methyl-5-oxo-4,5-dihydro-1H-pyrazol-4-yl)propanohydrazide]	8
Cc1[nH][nH]c(=O)c1CCC(=O)NN=Cc1cccc(Cl)c1 [N'-[(1Z)-(3-chlorophenyl)methylene]-3-(3-methyl-5-oxo-4,5-dihydro-1H-pyrazol-4-yl)propanohydrazide]	20.9
COc1cccc(C=NNC(=O)Cc2c(C)[nH][nH]c2=O)c1O [N'-[(E)-(5-methoxy-6-oxocyclohexa-2,4-dien-1-ylidene)methyl]-2-(3-methyl-5-oxo-1,4-dihydropyrazol-4-yl)acetohydrazide]	92.1
COc1ccc(NC(=O)CSc2nc(C)cc(=O)[nH]2)cc1 [N-(4-methoxyphenyl)-2-[(4-methyl-6-oxo-5H-pyrimidin-2-yl)sulfanyl]acetamide]	3.09
CCOc1cc(C2c3c(-c4ccccc4)n[nH]c3OC(=N)C2C#N)ccc1O (stereo unspecified) [SMR000019337]	77.1
CC(=O)N1CCC2(CC1)c1c(CSc3ccc(C)cc3)n[nH]c1OC(=N)C2C#N (stereo unspecified) [SMR000036525]	21.1
Cc1ccc(-c2n[nH]c3c2C(c2ccoc2)C(C#N)C(=N)O3)cc1C (stereo unspecified) [SMR000078160]	3.65
Cc1ccc(-c2ccc([CH+][N-]Nc3nc(O)c(CC(=O)O)s3)o2)c([N+](=O)[O-])c1 [SMR000135699]	101
Cc1cc(-c2n[nH]c3c2C(c2cccc(O)c2)C(C#N)C(=N)O3)c(C)s1 (stereo unspecified) [SMR000136653]	52.8

SMILES	IC50 [µM]
Cc1ccc(-c2n[nH]c3c2C(c2ccsc2)C(C#N)C(=N)O3)cc1 (stereo unspecified) [SMR000143666]	11.3
COc1cccc(C=NNC(=O)Cc2c(C)[nH][nH]c2=O)c1OC [SMR000147373]	23.5
O=C1c2ccccc2C(=O)C1C1=NC(C(=O)O)c2c1c(O)n(-c1ccccc1)c2O (stereo unspecified) [SMR000168620]	68
CCc1nnc(NS(=O)(=O)c2ccc(N=CCC(=O)c3cccc4ccccc34)cc2)s1 [SMR000172027]	10.1
Cc1ccc(S(=O)(=O)Oc2cccc(-n3c(O)c4c(c3O)CC=CC4)c2)cc1 [SMR000197106]	49.6
CC(CCC1CC(C)OC1=O)N=Nc1nc(-c2ccccc2)cs1 (stereo unspecified) [SMR000204131]	30.8
O=C1C=C/C(=C/NN2C(=O)C3C4C=CC(CC4)C3C2=O)C=C1O (stereo unspecified) [SMR000207592]	34.3
CC(CC1CC(C)(C)OC1=O)N=Nc1nc(-c2ccccc2)cs1 (stereo unspecified) [SMR000220752]	52.8
Cc1cc(C=C2C(=O)NC(=O)N(c3ccc(F)cc3)C2=O)c(C)n1-c1ccc(C(=O)O)cc1 [SMR000273525]	149
CC(=NNC(=O)Cc1c(C)[nH][nH]c1=O)c1cccs1 [SMR000305285]	3.56
N#Cc1c(NC=C2C(=O)NC(=S)NC2=O)sc2c1CCCC2 [SMR000305847]	110
O=C(Nn1c(O)csc1=S)C(=O)Nn1c(O)csc1=S [SMR000349781]	20.5
O=C(O)c1ccc(CN=Nc2ccc(F)cc2F)cc1 [SMR000364892]	99.4
Cc1ccc(CN=Nc2ccc(C(=O)O)cc2)s1 [SMR000364894]	20.4
O=C(O)c1cc(N=NCc2ccc(OCc3ccccc3)cc2)ccc1Cl [SMR000364895]	20
CN(C)c1ccc(/N=N/c2ccccc2C(=O)OCC(=O)N(C)C2CCCCC2)cc1 [[2-[cyclohexyl(methyl)amino]-2-oxidanylidene-ethyl] 2-[[4-(dimethylamino)phenyl]diazenyl]benzoate]	15.2
Cc1c(C)c(O)c(C=CCCC#CCCCC#CCO)c(C)c1O [docebenone]	53.4
CCOC(O)c1oc2c(c(=O)c1-c1nncn1-c1ccccc1)C=CC(=O)C2=O (stereo unspecified) [ethyl 7,8-dihydroxy-4-oxo-3-(4-phenyl-4H-1,2,4-triazol-3-yl)-4H-chromene-2-carboxylate]	6.58
O=C(O)[C@H]1O[C@@H](Oc2c(-c3ccc(O)c(O)c3)oc3cc(O)cc(=O)c-3c2O)[C@H](O)[C@@H](O)[C@@H]1O [quercetin glucuronide]	48.2
O=C(O)c1ccc(N=NCc2ccc(C(F)(F)F)cc2)cc1 [sulfuric acid;4-[(N'E)-N'-[4-(trifluoromethyl)benzylidene]hydrazino]benzoic acid]	46.3
